The values below come from patent US20120189558A1, “ANTI-BACTERIAL COMPOSITIONS COMPRISING EXTRACTS OF EREMOPHILA LONGIFOLIA AND METHODS FOR USE OF SAME” (priority 2009, published 2012).

In brackets after ≈: the same amount, converted by molar mass.

Assay [1] has as its system Stenotrophomonas maltophilia - antibiotic-susceptible clinical isolate. The assay is described as follows: MIC by CLSI microbroth dilution. It counts as cell-based. The conditions noted are these: isolate GN12. On the procedure: (§1) A study was carried out to determine the minimum inhibitory concentration (MIC) for Emubush extract and a comparator against a panel of isolates using Clinical and Laboratory Standards Institute (CLSI) broth methodology.
(§2) The Emubush extract was prepared by dissolving 95.2 mg in ethanol. The solvent was then evaporated off and the material re-dissolved in ethanol at room temperature.
(§3) MIC was determined by microbroth dilution following CLSI methodology. [CLSI Methods for Dilution Antimicrobial Susceptibility Tests for Bacteria That Grow Aerobically; Approved Standard-Eighth Edition. CLSI Document M07-A8. CLSI, Wayne, Pa. 19087-1898, USA, 2009].

Assay [2] relates to Pseudomonas aeruginosa - multi-drug resistant clinical isolate. The assay is described as follows: MIC by CLSI microbroth dilution. The note with it: isolate GN11. It counts as cell-based. On the procedure:
as §1, §2, §3
In general terms: Broth dilution looks for growth in wells or tubes with falling amounts of substance.

Assay [3] has as its system Streptococcus pneumoniae - multi-drug resistant clinical isolate. Nature of the assay: MIC by CLSI microbroth dilution. In kind it is cell-based. The conditions noted are these: isolate GP24. On the procedure:
as §1, §2, §3

Assay [4] has as its system Serratia marcescens - multi-drug resistant clinical isolate. The assay is described as follows: MIC by CLSI microbroth dilution. In kind it is cell-based. The conditions noted are these: isolate GN09. On the procedure: as §1, §2, §3
The subject of assay [5] is Staphylococcus epidermidis - antibiotic susceptible clinical isolate. The assay is described as follows: MIC by CLSI microbroth dilution. It counts as cell-based. The note with it: isolate GP7. On the procedure: as §1, §2, §3
In assay [6] the test system is Staphylococcus epidermidis - methicillin-resistant clinical isolate. The assay is described as follows: MIC by CLSI microbroth dilution. It counts as cell-based. The note with it: isolate GP8. On the procedure: as §1, §2, §3
Assay [7] deals with Staphylococcus aureus ATCC 43300 - methicillin-resistant type strain. The assay is described as follows: MIC by CLSI microbroth dilution. In kind it is cell-based. The conditions noted are these: ATCC43300, isolate GP3. On the procedure:
as §1, §2, §3

Assay [8] has as its system Burkholderia cepacia - antibiotic-susceptible clinical isolate. The assay is described as follows: MIC by CLSI microbroth dilution. It counts as cell-based. The conditions noted are these: isolate GN14. On the procedure:
as §1, §2, §3

Assay [9] concerns Streptococcus pyogenes - antibiotic-susceptible clinical isolate. Nature of the assay: MIC by CLSI microbroth dilution. In kind it is cell-based. The conditions noted are these: isolate GP59. On the procedure:
as §1, §2, §3

Assay [10] concerns Staphylococcus aureus ATCC 29213 - antibiotic-susceptible type strain. The assay is described as follows: MIC by CLSI microbroth dilution. The note with it: ATCC29213, isolate GP1. It counts as cell-based. On the procedure: as §1, §2, §3
For assay [11], the system named is Serratia marcescens - antibiotic-susceptible clinical isolate. Nature of the assay: MIC by CLSI microbroth dilution. In kind it is cell-based. The note with it: isolate GN08. On the procedure: as §1, §2, §3
Assay [12] concerns Staphylococcus aureus - methicillin-resistant clinical isolate. Nature of the assay: MIC by CLSI microbroth dilution. It counts as cell-based. The conditions noted are these: isolate GP4. On the procedure: as §1, §2, §3
The subject of assay [13] is Stenotrophomonas maltophila - antibiotic-resistant clinical isolate. Nature of the assay: MIC by CLSI microbroth dilution. The note with it: Stenotrophomonas sp. LMG 10879; isolate GN13. It counts as cell-based, Stenotrophomonas maltophilia. On the procedure: as §1, §2, §3
The test system of assay [14] is a selection of Streptococcus species. The note with it: isolated active compound; Hu et al., 2000; cited from earlier work.
The next assay deals with S. mutans biofilm. Nature of the assay: S. mutans artificial biofilm assay. In kind it is cell-based, Streptococcus mutans. The conditions noted are these: 5 mg/ml, 1 hour treatment. On the procedure: (§4) Artificial biofilm assays were performed based on the method of Alviano et al. (2008). Non-stimulated saliva was collected from a healthy donor and 20 μL was placed on sterile 0.22 μm Millipore membrane disks of 13 mm diameter, previously placed over BHI agar plates. Plates were incubated for 48 hours at 37° C. After biofilm growth, the disks were collected and each disk was placed inside a bottle containing 3 ml of stem extract (5 mg/ml or 10 mg/ml in ethanol), Milli-Q distilled water or ethanol for 1 hour at 37° C. with gentle shaking. Then, the disks were briefly washed with Milli-Q distilled water to remove the plant extract and unbound bacterial cells, and the biofilm was extracted by vortexing the disks in 1 ml of BHI broth. Immediately, serial dilutions were performed and 100 μL of each dilution were spread on BHI agar. The plates were incubated in candle jars for 48 hours at 37° C. and a viable count was performed. An S. mutans artificial biofilm assay was performed by repeating the above method except that a pure ON culture of S. mutans was grown on the membrane disks instead of salivary bacteria. Both this assay and the salivary assay were performed in duplicate.

The test system of assay [15] is Streptococcus mutans (969). Nature of the assay: Plate-hole and disk diffusion assays. It counts as cell-based. The note with it: S. mutans, 2 mg/ml positive control, mean +/- SD of three plate-hole and three disk diffusion assays. On the procedure: (§5) Plate-hole diffusion assays were used to test for antibacterial activity (Palombo and Semple, 2001). A pure colony of each culture was grown in BHI broth and 200 μL were added to 15 ml of molten BHI agar. The inoculated agar was gently mixed and transferred to a sterile petri dish. Once set and dried, a sterilised core-borer (6 mm diameter) was used to make wells in the agar, and 10 μL of plant extract were added into each well. One well on each plate was filled with neat solvent as a control. Disk diffusion assays were also used to test for antibacterial activity (Pennacchio et al., 2005). 10 μL of each extract and control were placed on sterile paper disks (6 mm diameter, Oxoid) and allowed to dry for 25 minutes. 100 μL of each overnight (ON) culture was spread on BHI agar and allowed to dry for 10 minutes. Disks were transferred to the agar surface. Both plate-hole and disk diffusion assays were incubated overnight at 37° C. in candle jars and were carried out in triplicate.
A general note: In agar diffusion tests the substance spreads into inoculated agar from a disc or well.

The test system of the next assay is S. sobrinus (6715-247). The assay is described as follows: Plate-hole and disk diffusion assays. It counts as cell-based, Streptococcus sobrinus. The conditions noted are these: 2 mg/ml positive control, mean +/- SD of three plate-hole and three disk diffusion assays. On the procedure:
as §5

Assay [16] concerns salivary bacteria biofilm. The assay is described as follows: Salivary bacteria artificial biofilm assay. It counts as cell-based, human. The note with it: 5 mg/ml, 1 hour treatment. On the procedure: as §4

Consider `C[C@H]1COc2c(N3CCN(C)CC3)c(F)cc3c(=O)c(C(=O)O)cn1c23` [Levofloxacin], for which the MIC (as a rule, the lowest concentration found to suppress growth) in assay [1] amounted to 0.12 µg/mL (≈ 0.332 µM); in assay [2], 4 µg/mL (≈ 11.1 µM); in [3] it was 1 µg/mL (≈ 2.77 µM); in assay [4] it was 2 µg/mL (≈ 5.53 µM); in [5] it was 0.12 µg/mL (≈ 0.332 µM); in assay [6] it was 0.12 µg/mL (≈ 0.332 µM). In addition, the minimal inhibitory concentration (MIC) in assay [7] turned out to be 0.12 µg/mL (≈ 0.332 µM); in assay [8] it was 1 µg/mL (≈ 2.77 µM); in assay [9], 0.5 µg/mL (≈ 1.38 µM); in assay [10], 0.25 µg/mL (≈ 0.692 µM); in assay [11] it was 0.06 µg/mL (≈ 0.166 µM); in assay [12] it was 0.12 µg/mL (≈ 0.332 µM). The MIC in [13] stood at 2 µg/mL (≈ 5.53 µM).
As for `COc1ccc2cc3[n+](cc2c1OC)CCc1cc2c(cc1-3)OCO2` [berberine], in assay [14], the MIC was 13 to 20 µg/mL.
Consider `[H]/N=C(\N/C(=N/[H])NCCCCCCNC(=N)NC(=N)Nc1ccc(Cl)cc1)Nc1ccc(Cl)cc1` [Chlorhexidine, chlorhexidine], for which the “reduction in viable biofilm cells” value (with S. mutans biofilm; in assay [16]) was “greatest reduction in viable biofilm bacteria” in each case. Besides, the “mean diameter of the growth inhibition zone” value in assay [15] is 22.1 +/− 0.6 mm; in assay [15] (listed as chlorhexidine) it was 22.1+/−0.6 mm; in the assay with S. sobrinus (6715-247), 20.5 +/− 0.6 mm; with S. sobrinus (6715-247) (listed as chlorhexidine) it was 20.5+/−0.6 mm.
